Measurements published in patent publication US9623109B2, “Methods of killing cells and use of same in prevention and treatment of cancer” (Yissum Research Development Company of the Hebrew …, priority 2008, dated 2017).

Legend:
CKI-delta = CKI-delta (Homo sapiens, UniProt P48730); conditions: cited from earlier work
CKI-epsilon = CKI-epsilon (Homo sapiens, UniProt P49674); conditions: cited from earlier work
CKIα KO mice = assay: Sulindac feeding of CKIα knockout mice (gut phenotype, qRT-PCR, Western, IHC, SA-β-gal); assay type: in vivo, mouse
Procedure: Tamoxifen (Sigma) was dissolved in Corn Oil (Sigma) to a 20 mg/ml concentration. Mice at 2-3 months were injected subcutaneously with 2 mg Tamoxifen per injection, 5-7 injections every other day, over a 10-14 day period. Mice were sacrificed 4-5 days after the last injection. The colon and part of the small intestine were taken for histology, together with the stomach, liver, pancreas, spleen, kidney, heart and lung. Enterocytes (intestinal epithelial cells) were isolated from most of the small intestine. Enterocytes were used for RNA and protein assays.
All tissues were fixated in 4% formaldehyde for 24 hours, paraffin embedded and sectioned at 5 μm for hematoxylin/eosin (H&E) staining and immunohistochemistry. BrdU (Amersham) was injected intraperitonally at 100 μl/10 g body weight, 2 hours prior to sacrifice. The primary antibodies used were goat anti-CKIα (1:100; Santa Cruz), rabbit anti-Cleaved Caspase-3 (1:100; Cell Signaling), rabbit CM5 (anti-mouse p53) (1:400; Novocastra), mouse anti-β-catenin (1:200; BD transduction), mouse anti-BrdU (1:100; NeoMarkers), rabbit anti-Cyclin D1 (1:125; Lab Vision), mouse anti-p21 (1:50; Santa Cruz), mouse anti-γH2AX (Ser139) (1:100; Upstate), mouse anti-IL-8 (1:125; Bender), rabbit anti-Ki67 (1:300; NeoMarkers). The secondary antibodies used for immunohistochemistry were HRP-polymer anti-Rabbit and anti-Goat (Nichirei), HRP-polymer Mouse on Mouse kit (Nichirei), Mach2 anti mouse-HRP polymer (Biocare) and Mouse-Envision Plus (Dako). HRP was visualized with DAB chromogen (Thermo Scientific) and nuclear counterstain was hemotoxylin (BioOptica). The secondary antibody used for immunofluorescence was goat anti mouse Alexa-488 (1:1000; Molecular Probes). The nuclear counterstain used for immunofluorescence was Hoechst (1.5 μg/ml, Molecular Probes).
For enterocyte isolation, ˜⅔ of the small intestine was washed and minced into small pieces in PBS/1 mM DTT. Intestine was separated into single cells in Ca^2+, Mg^2+ free HBSS containing 10 mM HEPES, 5 mM EDTA and 0.5 mM DTT, at 37° C. for 30 minutes with slow agitation. Lysate was mixed vigorously and cell suspension was centrifuged. Cell pellets were frozen in liquid N2 and stored at −80° C. Protein was extracted from cell pellets in cell lysis buffer containing protease and phosphatase inhibitors. Primary antibodies used in Western blotting were goat-anti CKIα (1:100; Santa Cruz), mouse anti-CKIε (1:250; Santa Cruz), mouse anti-β-catenin (1:2500; BD transduction), rabbit anti-Phospho-β-catenin (Thr41/Ser45) (1:750, Cell Signaling), rabbit CM5 (anti-mouse p53) (1:400; Novocastra), mouse anti-human p53 (1:20; DO-1 hybridoma), rabbit anti-Phospho-p53 (Ser15) (1:1000; Cell Signaling), rabbit anti-Cyclin D1 (1:300; Lab Vision), rabbit anti-Cyclin D2 (1:1000; Santa Cruz), rabbit-anti Bax (1:200; Santa Cruz), mouse anti-MdmX (1:1000; Sigma), goat anti-MdmX (1:200; Santa Cruz), mouse anti-GSK3β (1:2500; BD transduction) rabbit anti-Cleaved Caspase-3 (1:1000; Cell Signaling), rabbit anti-PARP (1:1000; Cell Signaling), mouse anti-p21 (1:200; Santa Cruz), mouse anti-E2F1 (1:500, Santa Cruz), mouse anti-γH2AX (Ser139) (1:1000; Upstate), rabbit anti-Phospho-Chk2 (Thr68) (1:1000; Cell Signaling), rabbit anti-Hsp90 (1:5000; Calbiochem). Secondary antibodies used in Western blotting were HRP-conjugated, goat anti-rabbit, goat anti-mouse and rabbit anti-goat (1:10,000; Jackson). ECL (Amersham) was used for HRP detection. […]

[1] = system: RKO colorectal carcinoma cells; assay: CKIδ/ε or CKIδ shRNA knockdown in RKO colorectal carcinoma cells (DNA damage response); assay type: cell-based; conditions: CKIδ depletion, human colorectal carcinoma cell line, FIG. 21
Procedure: FIG. 21 is a photograph illustrating the DNA damage response (DDR) upon CKIδ/ε ablation.
For enterocyte isolation, ˜⅔ of the small intestine was washed and minced into small pieces in PBS/1 mM DTT. Intestine was separated into single cells in Ca^2+, Mg^2+ free HBSS containing 10 mM HEPES, 5 mM EDTA and 0.5 mM DTT, at 37° C. for 30 minutes with slow agitation. Lysate was mixed vigorously and cell suspension was centrifuged. Cell pellets were frozen in liquid N2 and stored at −80° C. Protein was extracted from cell pellets in cell lysis buffer containing protease and phosphatase inhibitors. […]
RKO and HCT116 cells were cultured in Dulbecco's modified Eagle's medium, supplemented with 10% fetal calf serum (Sigma). […] CKIα expression levels were determined before each experiment to ensure adequate knockdown. […]

Chain of CKI-epsilon (P49674 whole entry): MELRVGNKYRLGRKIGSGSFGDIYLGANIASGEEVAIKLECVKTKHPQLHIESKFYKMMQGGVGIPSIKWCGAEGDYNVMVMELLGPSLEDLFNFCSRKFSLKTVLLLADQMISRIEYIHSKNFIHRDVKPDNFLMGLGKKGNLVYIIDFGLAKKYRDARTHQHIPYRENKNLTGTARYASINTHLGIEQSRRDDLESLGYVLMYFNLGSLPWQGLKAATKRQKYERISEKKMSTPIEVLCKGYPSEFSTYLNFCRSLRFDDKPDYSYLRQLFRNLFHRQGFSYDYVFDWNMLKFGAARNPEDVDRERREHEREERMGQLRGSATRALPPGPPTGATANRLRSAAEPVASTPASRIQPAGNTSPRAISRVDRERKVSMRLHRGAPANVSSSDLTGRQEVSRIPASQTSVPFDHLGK
Chain of CKI-delta (P48730 whole entry): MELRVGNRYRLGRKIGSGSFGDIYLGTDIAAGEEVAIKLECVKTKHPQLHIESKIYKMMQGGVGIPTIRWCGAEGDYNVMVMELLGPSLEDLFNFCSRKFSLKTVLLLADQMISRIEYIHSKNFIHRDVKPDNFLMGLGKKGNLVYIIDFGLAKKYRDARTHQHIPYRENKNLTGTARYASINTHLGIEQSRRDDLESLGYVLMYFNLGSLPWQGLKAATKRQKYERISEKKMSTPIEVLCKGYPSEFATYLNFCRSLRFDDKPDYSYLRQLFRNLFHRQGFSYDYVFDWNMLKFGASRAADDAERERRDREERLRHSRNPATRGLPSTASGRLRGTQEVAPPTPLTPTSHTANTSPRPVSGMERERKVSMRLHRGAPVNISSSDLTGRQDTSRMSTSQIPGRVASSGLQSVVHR

## COc1cc(OC)c(C=C2C(O)=Nc3ccccc32)c(OC)c1 [IC261]
CKI-delta
  inhibition of CKI-delta: specific inhibitor
CKI-epsilon
  inhibition of CKI-epsilon: specific inhibitor

## CC1=C(CC(=O)O)c2cc(F)ccc2/C1=C\c1ccc([S+](C)[O-])cc1 (centres unmarked) [Sulindac]
CKIα KO mice; CKIα KO mice, Sulindac in the drinking water, FIG. 14
  cell-non autonomous effects of CKIα deficiency: prevents
CKIα KO mice; CKIα knockout mice fed Sulindac
  overall phenotype of the gut tissue: severity of dysplasia: greatly reduced
CKIα KO mice; CKIα knockout mice fed Sulindac for the duration of the experiment
  markers for Wnt activation, inflammation, senescence and cell growth arrest, including CyclinD1, Troy, Cox2, SA-β-gal and p21: significant reduction
CKIα KO mice; intestines of CKIα KO mice treated with Sulindac, FIG. 13
  p53-independent senescence phenotype (SA β-gal) induced by CKIα deletion: reversed
CKIα KO mice; sulindac fed CKIα KO mice, never found in control mutant mice
  clusters of cells with high grade dysplasia in the villi: many clusters of cells were found with high grade dysplasia

## CKIδ shRNA: shRNA sequence for CKIδ alone (SEQ ID NO: 5), from Open Biosystems, cloned in pLKO vector (CCGGCCCATCGAAGTGTTGTGTAAACTCGAGTTTACACAACACTTCGATGGGTTTTT)
[1]
  p53 protein: induced p53 stabilization
